Data reported in ChEMBL document CHEMBL1141953, “Synthesis and structure-activity relationships of novel benzene sulfonamides with potent binding affinity for bovine carbonic anhydrase II” (Bioorg Med Chem Lett, 2005).

Molecular target: Carbonic anhydrase 2 (Bos taurus, UniProt P00921)
Assay: Displacement of DNSA from CAII in bovine erythrocytes

Chain of Carbonic anhydrase 2 (P00921 whole entry): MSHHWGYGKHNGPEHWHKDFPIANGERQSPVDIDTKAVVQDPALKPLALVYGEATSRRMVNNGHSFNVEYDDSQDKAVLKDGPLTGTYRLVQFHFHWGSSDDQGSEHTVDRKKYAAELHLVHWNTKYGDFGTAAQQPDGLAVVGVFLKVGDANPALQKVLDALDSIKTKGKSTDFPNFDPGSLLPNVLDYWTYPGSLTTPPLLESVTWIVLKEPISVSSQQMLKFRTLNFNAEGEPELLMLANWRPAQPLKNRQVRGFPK

| SMILES | Ki [nM] |
| --- | --- |
| C=CCCCOC(=O)c1ccc(S(N)(=O)=O)cc1 | 7.7 |
| C=CCOC(=O)c1ccc(S(N)(=O)=O)cc1 | 8.6 |
| NS(=O)(=O)c1ccc(C(=O)OC/C=C/COC(=O)c2ccccc2)cc1 | 4.7 |

Second part, the molecule after the results:

| Ki [nM] | SMILES |
| --- | --- |
| 9.3 | NS(=O)(=O)c1ccc(C(=O)OC/C=C\COC(=O)c2ccc(S(N)(=O)=O)cc2)cc1 |
| 4.9 | NS(=O)(=O)c1ccc(C(=O)OC/C=C/COC(=O)c2ccc(S(N)(=O)=O)cc2)cc1 |
| 9.1 | NS(=O)(=O)c1ccc(C(=O)OC/C=C\CO)cc1 |
| 5.3 | NS(=O)(=O)c1ccc(C(=O)OC/C=C/CO)cc1 |
